# From patent US8580833B2, “Substituted imidazole derivatives and methods of use thereof” (TransTech Pharma, Inc., priority 2009, dated 2013)
# Counter-ions that a name gives are not always drawn. Like-named read-outs stand apart in the source and are kept apart here.
# What was measured:
# [1] = Pharmacokinetic screening in rats, brain and plasma concentrations at 6 hour time point; format: in vivo; settings: male, Sprague Dawley, rat, 5 mg/kg oral (PO), 6 hour time point; for concentration at 6 h: 2% Tween 80 in distilled water; for Kp at 6 h: brain/plasma ratio, read-out: B/P Ratio
# Method: Pharmacokinetic screening in rats was performed on various compounds to measure brain and plasma concentrations at 6 hour time point.
# The parameters for the pharmacokinetic protocol were as follows.
# Amount of compound: 5 mg/kg
# Species: Rat; Strain: Sprague Dawley; Sex: Male
# Average body weight at dose: weight ranged from 271 to 423 grams
# Average age at dose: age ranged from 9 to 14 weeks
# Diet Status Overnight fasting
# Number of Animals (n) for each time point: 2
# Formulation: 2% Tween 80 in distilled water
# Each formulation was administered once by oral gavage. The dose volume was 5 mL/kg for all animals. The actual volume administered to each animal was calculated and adjusted based on the most recent body weight.
# Blood samples (approximately 300 μL whole blood) at (1, 2, and 4 h) was collected from each animal via tail vein except for terminal blood samples. Terminal blood (6 h) samples were collected via cardiac puncture. All samples were collected into tubes containing lithium heparin (Multivette 600 LH-Gel, Sarstedt, Newton, N.C., USA). Following collection, the tubes were placed in refrigerator (maximum 30 minutes) or until centrifugation under refrigeration (at 2 to 8° C.) at 1500 g for approximately 15 minutes. Each harvested plasma sample was then transferred into 1.2 mL polypropylene tubes, on the 96-Well Plate according to the 96-Well Plate plasma sample map and kept in freezer. Plasma samples were then analyzed for test substances.
# Brain samples were collected immediately after the animals were euthanized at designated time points. Brain samples were rinsed with saline, blotted dry, and weighed. Brain samples were placed into individual containers and kept in freezer (−20° C.). Brain samples were then analyzed for test articles.
# After analysis, all the plasma results are reported as ng/mL and brain sample results are reported as ng/g. In the table below, “ND” stands for not determined and “NA” stands for not applicable.
# [2] = target: T1, RAGE (sRAGE) with β-amyloid as the RAGE ligand (Homo sapiens, UniProt Q15109); experiment: ELISA: inhibition of sRAGE binding to plate-bound β-amyloid; settings: sRAGE 6 nM, hydrochloride salt form
# T1 construct: generate soluble RAGE (sRAGE) comprised of the V and C domains
# T1 sequence (Q15109 23-342 limits assumed): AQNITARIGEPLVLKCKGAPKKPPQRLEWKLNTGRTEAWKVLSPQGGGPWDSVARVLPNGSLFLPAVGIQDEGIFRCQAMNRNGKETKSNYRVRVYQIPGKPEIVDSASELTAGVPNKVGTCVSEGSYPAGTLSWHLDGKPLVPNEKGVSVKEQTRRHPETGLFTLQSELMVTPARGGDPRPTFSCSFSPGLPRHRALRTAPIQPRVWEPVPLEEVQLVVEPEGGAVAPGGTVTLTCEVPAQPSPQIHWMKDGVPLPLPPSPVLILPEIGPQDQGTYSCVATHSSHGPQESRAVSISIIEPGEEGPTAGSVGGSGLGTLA
# Method: (§1) The following assay method may be used to identify compounds of Formula (I) or pharmaceutically acceptable salts thereof which are useful as inhibitors of binding of physiological RAGE ligands, such as S100b and β-amyloid, to RAGE.
# (§2) S100b, β-amyloid, or CML (500 ng/100 μL/well) in 100 mM sodium bicarbonate/sodium carbonate buffer (pH 9.8) is loaded onto the wells of a NUNC Maxisorp flat bottom 96-well microtitre plate. The plate is incubated at 4° C. overnight. The wells are aspirated and treated with 50 mM imidazole buffer saline (pH 7.2) (with 5 mM CaCl2/MgCl2) containing 1% bovine serum albumin (BSA) (300 μL/well) for 1 h at RT. The wells are aspirated.
# (§3) Test compounds are dissolved in nanopure water (concentration: 10-100 μM). DMSO may be used as co-solvent. 25 μL of test compound solution in 4% DMSO is added, along with 75 μL sRAGE (6 nM FAC) to each well and samples are incubated for 1 h at 37° C. The wells are washed several times with 155 mM NaCl pH 7.2 buffer saline and are soaked for several seconds between each wash.
# (§4) Non-radioactive detection is performed by adding:
# (§5) 10 μL Biotinylated goat F(ab′)2 Anti-mouse IgG. (8.0×10-4 mg/mL, FAC), 5 μL Alk-phos-Streptavidin (3×10-3 mg/mL FAC), 0.42 μL per 5 mL Monoclonal antibody for sRAGE (FAC 6.0×10-3 mg/mL) to 5 mL 50 mM imidazole buffer saline (pH 7.2) containing 0.2% bovine serum albumin and 5 mM CaCl2. The mixture is incubated for 30 minutes at RT.
# (§6) 100 μL of complex is added to each well and incubation is allowed to proceed at rt for 1 h. Wells are washed several times with wash buffer and soaked several seconds between each wash. 100 μL 1 mg/mL (pNPP) in 1 M diethanolamine (pH adjusted to 9.8 with HCl) is added. Color is allowed to develop in the dark for 30 min to 1 h at rt. The reaction is quenched with 10 μL of stop solution (0.5-1.0 N NaOH in 50% ethanol) and the absorbance is measured spectrophotometrically with a microplate reader at 405 nm.
# (§7) IC50 (μM) of in the ELISA assay represents the concentration of compound at which 50% signal has been inhibited.
# [3] = target: T2, RAGE (sRAGE) with S100b as the RAGE ligand (Homo sapiens, UniProt Q15109); experiment: ELISA: inhibition of sRAGE binding to plate-bound S100b; settings: sRAGE 6 nM, hydrochloride salt form
# T2 construct: generate soluble RAGE (sRAGE) comprised of the V and C domains
# T2 sequence (Q15109 23-342 limits assumed): as above
# Method: as §1, §2, §3, §4, §5, §6, §7
# [4] = brain, read-out: Brain concentration
# [5] = plasma, read-out: Plasma concentration
"concentration at 6 h [1, 4] [ng/g]","concentration at 6 h [1, 5] [ng/mL]",Kp at 6 h [1],IC50 [2] [nM],IC50 [3] [nM],Compound
3900,155,25.3,780,770,"CCOCc1nc(-c2ccc(OC[C@@H](O)CN(C)C)cc2)cn1-c1ccc(Oc2ccc(Cl)cc2)cc1 [Example 6, (S)-1-(4-{1-[4-(4-chloro-phenoxy)-phenyl]-2-ethoxymethyl-1H-imidazol-4-yl}-phenoxy)-3-dimethylamino-propan-2-ol dihydrochloride]"
,,,1550,3130,"CCNC[C@H](O)COc1ccc(-c2cn(-c3ccc(Oc4ccc(Cl)cc4)cc3)c(COCC)n2)cc1 [Example 16, (S)-1-(4-{1-[4-(4-chloro-phenoxy)-phenyl]-2-ethoxymethyl-1H-imidazol-4-yl}-phenoxy)-3-ethylamino-propan-2-ol dihydrochloride]"
540,124,4.5,1190,980,"CCCCc1nc(-c2ccc(OC[C@@H](O)CNCC)cc2)cn1-c1ccc(Oc2ccc(Cl)cc2)cc1 [Example 12, (S)-1-(4-{2-butyl-1-[4-(4-chloro-phenoxy)-phenyl]-1H-imidazol-4-yl}-phenoxy)-3-ethylamino-propan-2-ol dihydrochloride]"
626,18,34.1,850,660,"CCCCc1nc(-c2ccc(OC[C@H](O)CN(C)C)cc2)cn1-c1ccc(Oc2ccc(Cl)cc2)cc1 [Example 1, (R)-1-(4-{2-butyl-1-[4-(4-chloro-phenoxy)-phenyl]-1H-imidazol-4-yl}-phenoxy)-3-dimethylamino-propan-2-ol dihydrochloride]"
212,74,2.9,1320,1140,"CCCCc1nc(-c2ccc(OC[C@@H](O)CNC)cc2)cn1-c1ccc(Oc2ccc(Cl)cc2)cc1 [Example 10, (S)-1-(4-{2-butyl-1-[4-(4-chloro-phenoxy)-phenyl]-1H-imidazol-4-yl}-phenoxy)-3-methylamino-propan-2-ol dihydrochloride]"
343,72,4.8,1020,810,"CCCCc1nc(-c2ccc(OC[C@H](O)CNCC)cc2)cn1-c1ccc(Oc2ccc(Cl)cc2)cc1 [Example 11, (R)-1-(4-{2-butyl-1-[4-(4-chloro-phenoxy)-phenyl]-1H-imidazol-4-yl}-phenoxy)-3-ethylamino-propan-2-ol dihydrochloride]"
,,,2160,4610,"CCOCc1nc(-c2ccc(OC[C@H](O)CNC)cc2)cn1-c1ccc(Oc2ccc(Cl)cc2)cc1 [Example 13, (R)-1-(4-{1-[4-(4-chloro-phenoxy)-phenyl]-2-ethoxymethyl-1H-imidazol-4-yl}-phenoxy)-3-methylamino-propan-2-ol dihydrochloride]"
1120,48,23.3,800,840,"CCCCc1nc(-c2ccc(OC[C@@H](O)CN(C)C)cc2)cn1-c1ccc(Oc2ccc(Cl)cc2)cc1 [Example 3, (S)-1-(4-{2-butyl-1-[4-(4-chloro-phenoxy)-phenyl]-1H-imidazol-4-yl}-phenoxy)-3-dimethylamino-propan-2-ol dihydrochloride]"
537,76,7.2,1590,1130,"CCCCc1nc(-c2ccc(OC[C@H](O)CNC)cc2)cn1-c1ccc(Oc2ccc(Cl)cc2)cc1 [Example 9, (R)-1-(4-{2-butyl-1-[4-(4-chloro-phenoxy)-phenyl]-1H-imidazol-4-yl}-phenoxy)-3-methylamino-propan-2-ol dihydrochloride]"
3320,200,16.7,1020,710,"CCOCc1nc(-c2ccc(OC[C@H](O)CN(C)C)cc2)cn1-c1ccc(Oc2ccc(Cl)cc2)cc1 [Example 5, (R)-1-(4-{1-[4-(4-chloro-phenoxy)-phenyl]-2-ethoxymethyl-1H-imidazol-4-yl}-phenoxy)-3-dimethylamino-propan-2-ol dihydrochloride]"
,,,2370,4560,"CCOCc1nc(-c2ccc(OC[C@@H](O)CNC)cc2)cn1-c1ccc(Oc2ccc(Cl)cc2)cc1 [Example 14, (S)-1-(4-{1-[4-(4-chloro-phenoxy)-phenyl]-2-ethoxymethyl-1H-imidazol-4-yl}-phenoxy)-3-methylamino-propan-2-ol dihydrochloride]"
718,24,30.6,760,550,"CCCCc1nc(-c2ccc(OC[C@H](O)CN(CC)CC)cc2)cn1-c1ccc(Oc2ccc(Cl)cc2)cc1 [Example 2, (R)-1-(4-{2-butyl-1-[4-(4-chloro-phenoxy)-phenyl]-1H-imidazol-4-yl}-phenoxy)-3-diethylamino-propan-2-ol dihydrochloride]"
,,,2470,3140,"CCNC[C@@H](O)COc1ccc(-c2cn(-c3ccc(Oc4ccc(Cl)cc4)cc3)c(COCC)n2)cc1 [Example 15, (R)-1-(4-{1-[4-(4-chloro-phenoxy)-phenyl]-2-ethoxymethyl-1H-imidazol-4-yl}-phenoxy)-3-ethylamino-propan-2-ol dihydrochloride]"
2700,137,19.6,1260,800,"CCOCc1nc(-c2ccc(OC[C@@H](O)CN(CC)CC)cc2)cn1-c1ccc(Oc2ccc(Cl)cc2)cc1 [Example 8, (S)-1-(4-{1-[4-(4-chloro-phenoxy)-phenyl]-2-ethoxymethyl-1H-imidazol-4-yl}-phenoxy)-3-diethylamino-propan-2-ol dihydrochloride]"
610,74,8.8,650,540,"CCCCc1nc(-c2ccc(OC[C@@H](O)CN(CC)CC)cc2)cn1-c1ccc(Oc2ccc(Cl)cc2)cc1 [Example 4, (S)-1-(4-{2-butyl-1-[4-(4-chloro-phenoxy)-phenyl]-1H-imidazol-4-yl}-phenoxy)-3-diethylamino-propan-2-ol dihydrochloride]"
1380,153,9.1,1170,1050,"CCOCc1nc(-c2ccc(OC[C@H](O)CN(CC)CC)cc2)cn1-c1ccc(Oc2ccc(Cl)cc2)cc1 [Example 7, (R)-1-(4-{1-[4-(4-chloro-phenoxy)-phenyl]-2-ethoxymethyl-1H-imidazol-4-yl}-phenoxy)-3-diethylamino-propan-2-ol dihydrochloride]"
